Consider eight molecules from publication PMC9675719, “Expedient Synthesis of a Library of Heparan Sulfate‐Like “Head‐to‐Tail” Linked Multimers for Structure and Activity Relationship Studies” (Angewandte Chemie (International Ed. in English), 2022).

Usually IC50 stands for the concentration needed to halve the response being measured. For orientation: Kd means the free concentration of one partner at which half of the binding sites on the other are occupied at equilibrium, for simple one-to-one binding.

Like-named read-outs stand apart in the source and are kept apart here.

The target in test [1] is T1, FGF-2 (Homo sapiens, UniProt P09038). In words: Competition SPR assay: inhibition of FGF-2 interaction with immobilized biotinylated heparin. In kind it is binding. The following applies: for IC50: immobilized biotinylated heparin, FGF-2 50 nM, read-out: IC50 (amount of mimetic needed to reduce the FGF-2 binding by 50 %). Here is the method:
A competition SPR assay was performed to establish the SAR between the full panel of 27 HS‐like pseudo‐hexasaccharides and FGF‐2 (Figure 4). Biotinylated heparin was immobilized on the biosensor, and the pseudo‐hexasaccharides (10 μM) were mixed with FGF‐2 (50 nM) individually. […] The trend of 33, 33 z and 33 m in the order of decreasing FGF‐2 affinity is consistent with that observed in the direct binding SPR study (Figures 3 and S1). The IC50 values of several disaccharides and pseudo‐tetrasaccharides with FGF‐2 have also been measured. The disaccharides bound weakly with FGF‐2, and the fully sulfated pseudo‐tetrasaccharide gave the strongest binding among the pseudo‐tetrasaccharides tested, which in turn was much weaker than that of the pseudo‐hexasaccharide 33 (Figure S2).
Figure 4 Inhibition of 27 pseudo‐hexasaccharides (33, 33 a–z) on FGF‐2 interaction with heparin through a competition SPR assay. Biotinylated heparin was immobilized on the SPR biosensor. For the control well, FGF‐2 (50 nM) was flown over the sensor and the intensity of the signal due to FGF‐2 binding was set as a reference (100 %). […] Normalized FGF‐2 binding % was calculated based on the following formula: (signal intensity of FGF‐2/pseudo‐hexasaccharide)/(signal intensity of FGF‐2 only)×100 %. […]
FGF-2 was immobilized on sensor chip by primary amine coupling reaction. […] Solutions of various concentrations of pseudo-hexasaccharides 33, 33z, and 33m dissolved in 0.01% Tween 20 PBS buffer were injected over the FGF-2 chip at a flow rate of 30 µL/min, and the responses to binding were recorded .
Aqueous NaCl solution (2.0 M) was employed for regeneration to achieve baseline status after each run. Sensorgrams were evaluated using the Qdat program. […] The KD values were calculated by the Qdat software. […]
Heparin SPR chip was prepared by immobilizing biotinylated heparin on SA sensor chip (Cytiva, Uppsala, Sweden).[13] […] Normalized FGF - 2 binding % was calculated based on the following formula: (signal intensity o f FGF-2/pseudohexasaccharide)/(signal intensity of FGF -2 only) x 100%. […]
For orientation: In SPR one partner is held on a chip, and binding of the other changes the refractive index at the surface.

Test [2] addresses T1, FGF-2. In words: Direct binding SPR with FGF-2 immobilized on CDH sensor chip. The method, then:
The direct binding of FGF‐2 to the HS mimetics was measured by surface plasmon resonance (SPR). FGF‐2 was immobilized on a carboxymethyl dextran high capacity (CDH) sensor chip surface through carbodiimide mediated coupling. O‐/N‐Sulfated (33), O‐sulfated (33 z) and N‐sulfated (33 m) pseudo‐hexasaccharides were selected as analytes in addition to the heparin polysaccharide (MW: 17.2 kDa). […] Seeberger and co‐workers studied the binding of HS hexasaccharides with FGF‐2 through a powerful glycan microarray technology.[36] […] The N‐acetylated, O‐sulfated hexasaccharide 35 gave binding of ≈20 % of that of heparin, while the hexasaccharide 36 having three N‐sulfates only gave the lowest signal (<2%) binding to FGF‐2. The trend of decreasing FGF‐2 affinity from N‐ and O‐sulfated, to O‐sulfated only, to N‐sulfated only sequences of HS hexasaccharides (34, 35, 36) correlates well with those of the pseudo‐hexasaccharides 33, 33 z, and 33 m.
Figure 3 a) The SPR sensorgram of FGF‐2 binding with compound 33. The concentrations of 33 from top to bottom curves were 750 nM, 500 nM, 250 nM, 100 nM, 10 nM, and 1 nM. Each experiment was repeated at least three times with the representative data shown. The vertical line indicates the time when the dissociation process started. b) Table of K D values determined for 33, 33 z, and 33 m through the FGF‐2 SPR binding assay. c) Structures of compounds 35–38.
Measurements of binding constants of pseudo-hexasaccharides 33, 33z, and 33m with FGF-2 […]
FGF-2 was immobilized on sensor chip by primary amine coupling reaction. The surface of a CDH sensor chip (FortéBio, Inc., Molecular Devices, USA) was activated using freshly mixed N-hydroxysuccimide (NHS; 0.05 M) and 1-(3-(dimethylamino)propyl)-ethylcarbodiimide (EDC; 0.2 M) (1/1,v/v) in water, followed by the injection of FGF -2 (50 µg/ml) in PBS buffer. The remaining active esters were quenched by ethanolamine (1.0 M). Solutions of various concentrations of pseudo-hexasaccharides 33, 33z, and 33m dissolved in 0.01% Tween 20 PBS buffer were injected over the FGF-2 chip at a flow rate of 30 µL/min, and the responses to binding were recorded .
Aqueous NaCl solution (2.0 M) was employed for regeneration to achieve baseline status after each run. Sensorgrams were evaluated using the Qdat program. The response data due to association and dissociation were processed in Qdat using a reference surface to correct for any bulk refractive index changes and blank injections for double referencing . The binding profiles were fit globally into a 1:2 interaction model. The KD values were calculated by the Qdat software.
Analysis of the inhibition of pseudo-hexasaccharides on heparin/FGF-2 interaction using […]

The target in test [3] is T1, FGF-2. More on the design: method as in PMID 17066397. The following applies: glycan microarray, glycan concentration 16 μM; cited from earlier work.
The target of test [4] is T1, FGF-2. Also noted: method as in PMID 28651046, PMID 24959968. The following applies: read-out: KD of FGF-2 binding; cited from earlier work.
Setting [5] is: immobilized FGF-2, 1:2 interaction model, read-out: dissociation constant (KD) of binding to FGF-2.

T1 sequence (P09038 134-288 limits assumed, species assumed): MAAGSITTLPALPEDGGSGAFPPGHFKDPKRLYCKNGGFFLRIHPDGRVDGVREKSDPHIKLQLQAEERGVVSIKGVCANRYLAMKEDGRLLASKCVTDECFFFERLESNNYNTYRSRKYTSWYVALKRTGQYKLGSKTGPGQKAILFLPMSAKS

Take `CC(=O)NCCO[C@@H]1O[C@@H](C(=O)O)[C@@H](O[C@H]2O[C@H](COS(=O)(=O)O)[C@@H](OCCC(=O)NCCO[C@@H]3O[C@@H](C(=O)O)[C@@H](O[C@H]4O[C@H](COS(=O)(=O)O)[C@@H](OCCC(=O)NCCO[C@@H]5O[C@@H](C(=O)O)[C@@H](O[C@H]6O[C@H](COS(=O)(=O)O)[C@@H](OCCC(=O)O)[C@H](O)[C@H]6NC(C)=O)[C@H](O)[C@H]5OS(=O)(=O)O)[C@H](O)[C@H]4NC(C)=O)[C@H](O)[C@H]3OS(=O)(=O)O)[C@H](O)[C@H]2NC(C)=O)[C@H](O)[C@H]1OS(=O)(=O)O` [33 z]: on FGF-2 [1], the IC50 was about 100 µM. Also, the dissociation constant Kd on FGF-2 [2] (setting [5]) was determined as 0.94 µM.
Take `NCCS(=O)(=O)CCCCCO[C@@H]1O[C@@H](C(=O)O)[C@@H](O[C@H]2O[C@H](COS(=O)(=O)O)[C@@H](O[C@@H]3O[C@@H](C(=O)O)[C@@H](O[C@H]4O[C@H](COS(=O)(=O)O)[C@@H](O[C@@H]5O[C@@H](C(=O)O)[C@@H](O[C@H]6O[C@H](COS(=O)(=O)O)[C@@H](O)[C@H](O)[C@H]6NS(=O)(=O)O)[C@H](O)[C@H]5OS(=O)(=O)O)[C@H](O)[C@H]4NS(=O)(=O)O)[C@H](O)[C@H]3OS(=O)(=O)O)[C@H](O)[C@H]2NS(=O)(=O)O)[C@H](O)[C@H]1OS(=O)(=O)O` [compound 34]: the “binding to FGF-2 as compared to heparin polysaccharide” value at FGF-2 [3] is listed as “≈ 60%”.
Turning to `NCCCCCO[C@H]1O[C@H](COS(=O)(=O)O)[C@@H](O[C@@H]2O[C@@H](C(=O)O)[C@@H](O[C@H]3O[C@H](COS(=O)(=O)O)[C@@H](O[C@@H]4O[C@@H](C(=O)O)[C@@H](O)[C@H](O)[C@H]4O)[C@H](O)[C@H]3NS(=O)(=O)O)[C@H](O)[C@H]2OS(=O)(=O)O)[C@H](O)[C@H]1NS(=O)(=O)O` [compound 38], the Kd at FGF-2 [4] was 1.2 µM.
Take `CC(=O)NCCO[C@@H]1O[C@@H](C(=O)O)[C@@H](O[C@H]2O[C@H](CO)[C@@H](OCCC(=O)NCCO[C@@H]3O[C@@H](C(=O)O)[C@@H](O[C@H]4O[C@H](CO)[C@@H](OCCC(=O)NCCO[C@@H]5O[C@@H](C(=O)O)[C@@H](O[C@H]6O[C@H](CO)[C@@H](OCCC(=O)O)[C@H](O)[C@H]6NS(=O)(=O)O)[C@H](O)[C@H]5O)[C@H](O)[C@H]4NS(=O)(=O)O)[C@H](O)[C@H]3O)[C@H](O)[C@H]2NS(=O)(=O)O)[C@H](O)[C@H]1O` [33 m]: on FGF-2 [1] (under the experimental condition), the “inhibition of FGF-2/heparin interaction (in words)” value is given as “did not exhibit any inhibition”. Further, the “binding to FGF-2 (in words)” value on FGF-2 [2] (immobilized FGF-2, at 3 μM) is “little binding”. The Kd on FGF-2 [2] (immobilized FGF-2, value printed in μM under head KD value (nM), read-out: KD value) was over 3 µM.
Regarding `NCCCCCO[C@@H]1O[C@@H](C(=O)O)[C@@H](O[C@H]2O[C@H](CO)[C@@H](O[C@@H]3O[C@@H](C(=O)O)[C@@H](O[C@H]4O[C@H](CO)[C@@H](O[C@@H]5O[C@@H](C(=O)O)[C@@H](O[C@H]6O[C@H](CO)[C@@H](O)[C@H](O)[C@H]6NS(=O)(=O)O)[C@H](O)[C@H]5O)[C@H](O)[C@H]4NS(=O)(=O)O)[C@H](O)[C@H]3O)[C@H](O)[C@H]2NS(=O)(=O)O)[C@H](O)[C@H]1O` [compound 36], the “binding to FGF-2 as compared to heparin polysaccharide” value on FGF-2 [3] was under 2%.
On to `CC(=O)NCCO[C@@H]1O[C@@H](C(=O)O)[C@@H](O[C@H]2O[C@H](COS(=O)(=O)O)[C@@H](OCCC(=O)NCCO[C@@H]3O[C@@H](C(=O)O)[C@@H](O[C@H]4O[C@H](COS(=O)(=O)O)[C@@H](OCCC(=O)NCCO[C@@H]5O[C@@H](C(=O)O)[C@@H](O[C@H]6O[C@H](COS(=O)(=O)O)[C@@H](OCCC(=O)O)[C@H](O)[C@H]6NS(=O)(=O)O)[C@H](O)[C@H]5OS(=O)(=O)O)[C@H](O)[C@H]4NS(=O)(=O)O)[C@H](O)[C@H]3OS(=O)(=O)O)[C@H](O)[C@H]2NS(=O)(=O)O)[C@H](O)[C@H]1OS(=O)(=O)O` [compound 33], for which, on FGF-2 [1], the half-inhibitory concentration (IC50) is 1.7 µM. Moreover, the Kd at FGF-2 [2] (setting [5]) was 0.0196 µM.
As to `CC(=O)N[C@H]1[C@@H](O[C@H]2[C@H](O)[C@@H](OS(=O)(=O)O)[C@H](OCCCCCN)O[C@H]2C(=O)O)O[C@H](COS(=O)(=O)O)[C@@H](O[C@@H]2O[C@@H](C(=O)O)[C@@H](O[C@H]3O[C@H](COS(=O)(=O)O)[C@@H](O[C@@H]4O[C@@H](C(=O)O)[C@@H](O[C@H]5O[C@H](COS(=O)(=O)O)[C@@H](O)[C@H](O)[C@H]5NC(C)=O)[C@H](O)[C@H]4OS(=O)(=O)O)[C@H](O)[C@H]3NC(C)=O)[C@H](O)[C@H]2OS(=O)(=O)O)[C@@H]1O` [compound 35], the “binding to FGF-2 as compared to heparin polysaccharide” value on FGF-2 [3] is recorded as “≈ 20%”.
As for `CO[C@@H]1O[C@@H](C(=O)O)[C@@H](O[C@H]2O[C@H](COS(=O)(=O)O)[C@@H](O)[C@H](O)[C@H]2NS(=O)(=O)O)[C@H](O)[C@H]1OS(=O)(=O)O` [compound 37], the Kd at FGF-2 [4] was 17.5 µM.
